Measured values reported in patent US12440571B2, “Immune agonists” (SHENZHEN UNIVERSITY, priority 2020, dated 2025).

Assays:
Format in all cases: cell-based
[1] = system: Murine breast cancer 4T1 cells; assay: CCK8 growth inhibition, 4T1; conditions: Mus musculus, CCK8 method, 24 hrs (or 36, 72 hrs), read-out: IC50 of inhibitory activity on tumor cell growth, 4T1
Protocol: Murine breast cancer 4T1 cells (Kailian Biotech, KG338) in a logarithmic growth phase were selected and washed with PBS, digested with 0.25% trypsin (including EDTA), stopped digestion with a DMEM complete medium, then centrifuged, and resuspended to form a suspension of 4T1 single cells. Cells were counted using a hemocytometer and a cell concentration was calculated. A DMEM complete medium was used to adjust the cell suspension to a target concentration, and thereafter, the cells were plated on a 96-well cell culture plate according to 4×10^3/100 μL per well. After adherering to the wall, the 4T1 cells were stimulated according to the designed concentration gradients of the series of GY compounds or drugs, with each concentration being provided with 3 replicate holes. The 96-well cell culture plate with 4T1 cells seeded and dosing was placed in the cell incubator, and incubated at 37° C., 5% carbon dioxide for 24 hrs (or 36, 72 hrs). After the incubation time was over, 10 μL of CCK8 reagent was added to each well and incubated for 1-2 hrs at 37° C. A full-wavelength microplate reader was adopted to test an OD value at 450 nm wavelength.
CCK8 calculation formula is as follows: • Cell survival rate (100%)=[…]/(Ac−Ab)×100% • As: Absorbance of wells containing cells, CCK8 solution, and drug solution • Ac: Absorbance of wells containing cells and CCK8 solution, and no drug solution • Ab: Absorbance of wells containing CCK8 solution, no cells, and no drug solution
Cell growth inhibition rate (%)=1−((OD value of experimental group−OD value of blank group)/(OD value of control group−OD value of blank group)×100%).

[2] = system: human lymphoma Daudi B cells; assay: CCK8 growth inhibition, Daudi B; conditions: Homo sapiens, Daudi, CCK8 method; read-out: IC50 of inhibitory activity on tumor cell growth, Daudi B
TLR7 = target: T1, TLR7 (Homo sapiens, UniProt Q9NYK1); assay: Detection of TLR7 activation (HEK-Blue Detection), SEAP reporter; conditions: HEK-Blue hTLR7 cells, 6-16 hrs, absorbance 650 nm; read-out: TLR7(EC50/μM)
T1 construct: host or cells: HEK-Blue hTLR7 cells (HEK293-derived SEAP reporter line)
T1 sequence (Q9NYK1 27-1049): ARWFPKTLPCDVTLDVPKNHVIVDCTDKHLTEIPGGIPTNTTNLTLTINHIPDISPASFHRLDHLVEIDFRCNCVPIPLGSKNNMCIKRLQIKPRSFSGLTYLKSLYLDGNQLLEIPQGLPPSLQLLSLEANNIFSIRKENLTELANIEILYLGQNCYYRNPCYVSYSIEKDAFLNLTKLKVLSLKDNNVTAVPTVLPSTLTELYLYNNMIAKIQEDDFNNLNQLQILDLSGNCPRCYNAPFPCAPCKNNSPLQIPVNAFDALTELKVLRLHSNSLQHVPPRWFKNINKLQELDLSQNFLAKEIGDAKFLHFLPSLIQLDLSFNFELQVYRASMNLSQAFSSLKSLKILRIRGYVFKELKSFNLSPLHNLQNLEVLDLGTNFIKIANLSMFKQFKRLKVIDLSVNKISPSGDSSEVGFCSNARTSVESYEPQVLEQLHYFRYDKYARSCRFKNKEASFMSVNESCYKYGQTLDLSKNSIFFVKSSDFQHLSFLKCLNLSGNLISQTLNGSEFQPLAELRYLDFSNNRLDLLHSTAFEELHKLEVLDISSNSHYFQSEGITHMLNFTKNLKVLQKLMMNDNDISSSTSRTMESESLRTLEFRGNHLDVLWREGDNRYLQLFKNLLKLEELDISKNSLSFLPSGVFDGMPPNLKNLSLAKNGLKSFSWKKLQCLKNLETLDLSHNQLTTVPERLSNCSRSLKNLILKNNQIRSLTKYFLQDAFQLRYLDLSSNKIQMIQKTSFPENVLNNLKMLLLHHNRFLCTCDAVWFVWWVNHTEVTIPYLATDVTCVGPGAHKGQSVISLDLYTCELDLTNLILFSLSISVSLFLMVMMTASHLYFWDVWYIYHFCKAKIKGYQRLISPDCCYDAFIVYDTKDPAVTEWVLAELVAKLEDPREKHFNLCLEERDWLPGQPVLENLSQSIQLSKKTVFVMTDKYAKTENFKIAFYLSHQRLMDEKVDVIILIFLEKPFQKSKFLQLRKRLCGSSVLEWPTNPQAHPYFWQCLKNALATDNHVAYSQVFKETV
Protocol: HEK-Blue™hTLR7 cells (purchased from InvivoGen) in a logarithmic growth phase were taken, with a growth medium (Gibco, C11995500BT, Invivo Gen, ant-nr) discarded. The cells were gently rinsed twice by an appropriate amount of 37° C. PBS (Hyclone, SH30256.01), a rinsed PBS was discarded. Thereafter, the cells were added with 2-5 mL of 37° C. PBS, incubated for 1 to 2 minutes, and then scraped by a cell scraper and gently pipetted to be dispersed into a single cell suspension. A hemocytometer was adopted to count the cells and a cell concentration was calculated. After that, a HEK-Blue™ Detection solution (purchased from Invivo Gen) was adopted to adjust the cell concentration of the cell suspension to 2.5×10^4/180 μL per well for cell plating on a 96-well cell culture plate. The HEK-Blue™hTLR7 cells were stimulated according to the designed series of GY compound or drug concentrations (0.01 μM, 0.1 μM, 1 μM, 5 μM, 15 μM, and 30 μM), with 3 replicate wells for each concentration, and were incubated at 37° C., 5% carbon dioxide for 6-16 hrs. After the incubation, the absorbance value was read at 650 nm with a full-wavelength microplate reader (BioTek-Epoch), as listed in Table 2.
Relative induction=(average OD value of experimental group−average OD value of negative control group)/average OD value of negative control group.
Specific details for the above method may be referred to https: • //www.invivogen.com/hek-blue-htlr7; https://www.invivogen.com/sites/default/files/invivogen/products/files/hek_blue_htlr7_tds.pdf.

[3] = system: murine colon cancer CT-26 cells; assay: CCK8 growth inhibition, CT26; conditions: Mus musculus, CCK8 method, read-out: IC50 of inhibitory activity on tumor cell growth, CT26
black melanoma B16 cells = assay: CCK8 growth inhibition, B16; conditions: Mus musculus, CCK8 method, read-out: IC50 of inhibitory activity on tumor cell growth, B16
HEK293T cells = assay: CCK8 growth inhibition, HEK-293T; conditions: Homo sapiens, CCK8 method, read-out: IC50 of inhibitory activity on cell growth, HEK-293T
LLC = assay: CCK8 growth inhibition, LLC; conditions: Lewis lung carcinoma; CCK8 method; read-out: IC50 of inhibitory activity on tumor cell growth, LLC
[4] = system: human leukemia HL-60 cells; assay: CCK8 growth inhibition, HL60; conditions: Homo sapiens, HL-60, CCK8 method; read-out: IC50 of inhibitory activity on tumor cell growth, HL60

SMILES: CCCCOc1nc(N)c2nc(O)n(Cc3cn(CCCCN4CCN(CCCNC(=S)N5CCCC(n6nc(-c7ccc(Oc8ccccc8)cc7)c7c(N)ncnc76)C5)CC4)nn3)c2n1 (stereo not shown) [GY161]
- IC50 [1]: 0.78 µM
- IC50 [2]: 11.8 µM
- EC50 (TLR7): 3.86 µM
- IC50 [3]: 6.15 µM
- IC50 (black melanoma B16 cells): 11.7 µM

SMILES: CCCCOc1nc(N)c2nc(O)n(Cc3cn(CCOCCOCCOCCNC(=S)N4CCCC(n5nc(-c6ccc(Oc7ccccc7)cc6)c6c(N)ncnc65)C4)nn3)c2n1 (stereo not shown) [GY112]
- IC50 [1]: 1.45 µM
- IC50 [2]: 8.73 µM
- IC50 (HEK293T cells): 13.8 µM
- IC50 (LLC): 18.8 µM
- EC50 (TLR7): 2.65 µM
- IC50 [4]: 9.75 µM
- IC50 [3]: 25 µM
- IC50 (black melanoma B16 cells): 34.1 µM

SMILES: CCCCOc1nc(N)c2nc(O)n(Cc3cn(CCOCCOCCOCCNC(=S)Nc4cc(Nc5nccc(-c6cn(C)c7ccccc67)n5)c(OC)cc4N(C)CCN(C)C)nn3)c2n1 [GY127]
- IC50 [1]: 17.3 µM
- IC50 (HEK293T cells): 26 µM
- IC50 (LLC): 15.3 µM
- EC50 (TLR7): 1.06 µM
- IC50 [4]: 19.1 µM
- IC50 [3]: 16.9 µM
